Assay results: patent US20230285514A1, “STAPLED LACTAM CO-AGONISTS OF THE GLUCAGON AND GLP-1 RECEPTORS” (Merck Sharp & Dohme LLC, priority 2019, published 2023)
*1 amine or outer side, *2 acyl side, *3 side chain or, on linkers, in order; H or OH if unused. Where a SMILES comes first, the peptide text is derived from it. Bridges are numbered along the chain shown (N, C = ends). Side-chain parts run from the residue outwards. [ ]: non-standard residue; d: D form. The star is where a group is joined. γGlu = O=C(O)[C@H](CCC(=O)[*:2])N[*:1]; Palmitoyl = CCCCCCCCCCCCCCCC(=O)*; Nle = CCCC[C@H](N)C(=O)O; Aib = CC(C)(N)C(=O)O

Target: T1, human GCGR (Homo sapiens, UniProt P47871)
T1 construct: expressed in transfected cells
T1 sequence (P47871 26-477): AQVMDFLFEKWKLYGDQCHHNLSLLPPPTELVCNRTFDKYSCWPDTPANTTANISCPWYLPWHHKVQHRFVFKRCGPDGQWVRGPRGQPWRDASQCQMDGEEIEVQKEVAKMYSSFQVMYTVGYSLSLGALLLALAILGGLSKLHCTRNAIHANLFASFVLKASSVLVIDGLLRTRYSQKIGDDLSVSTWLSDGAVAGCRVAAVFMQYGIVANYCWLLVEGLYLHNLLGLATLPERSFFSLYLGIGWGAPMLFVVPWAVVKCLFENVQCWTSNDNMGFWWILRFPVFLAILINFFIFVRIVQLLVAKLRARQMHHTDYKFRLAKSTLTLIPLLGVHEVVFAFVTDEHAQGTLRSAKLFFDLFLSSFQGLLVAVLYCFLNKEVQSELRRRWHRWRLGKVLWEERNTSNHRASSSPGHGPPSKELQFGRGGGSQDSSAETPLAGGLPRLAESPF
Experiment: cAMP activity assay, cells expressing human GCGR
Assay type: cell-based
Details: for hGCGR/hGLPIR (hTone): ratio of human GCGR EC50 to human GLP1R EC50
Procedure: Activity of the peptides at the Glucagon receptor (GCGR) and GLP-1 receptor (GLP1R) was measured in a cAMP activity assay. Peptides were dissolved in 100% DMSO and serially diluted to generate 10 point titrations. The peptide solutions were then transferred into 384-well assay plates (150 nL/well). Assay ready frozen cells expressing human GLP1R or human GCGR were suspended in growth media consisting of DMEM medium (GIBCO), 10% FBS (GIBCO), 1×NEAA(GIBCO), 1×P/S (GIBCO), 10 ug/ml Blasticidin (GIBCO) and 200 μg/mL Hygromycin (GIBCO). […] The cell suspensions (15 μL) were then added to the assay plates containing the peptide solutions (30,000 cells/well for human GCGR; 10,000 cells/well for human GLP1R). […] Production of cAMP was determined using […] kits (DiscoverX) following manufacturer protocol. The plates were incubated for overnight at room temperature in the dark. Luminescence was measured using an EnVision Multilabel plate reader (Perkin Elmer). Native GLP-1 and Glucagon (Bachem) are used as control peptides.

CCCCCCCCCCCCCCCC(=O)N[C@@H](CCC(=O)N[C@@H](CCC(=O)NCCCC[C@H](NC(=O)[C@H](CC(=O)O)NC(=O)[C@H](CO)NC(=O)[C@@H](NC(=O)[C@H](Cc1ccccc1)NC(=O)[C@@H](NC(=O)CNC(=O)[C@H](CCC(N)=O)NC(=O)C(C)(C)NC(=O)[C@@H](N)Cc1c[nH]cn1)[C@@H](C)O)[C@@H](C)O)C(=O)N[C@@H](CO)C(=O)N[C@@H](CCCCN)C(=O)N[C@@H](Cc1ccc(O)cc1)C(=O)N[C@@H](CC(C)C)C(=O)N[C@@H](CC(=O)O)C(=O)NC(C)(C)C(=O)N[C@@H](CCCNC(=N)N)C(=O)N[C@@H](C)C(=O)N[C@@H](C)C(=O)N[C@@H](CCC(N)=O)C(=O)N[C@@H](CC(=O)O)C(=O)N[C@@H](Cc1ccccc1)C(=O)N[C@H](C(=O)N[C@H]1CCCCNC(=O)CC[C@@H](C(=O)N[C@H](C(N)=O)[C@@H](C)O)NC(=O)[C@H](CCCC)NC(=O)[C@H](CC(C)C)NC(=O)[C@H](Cc2c[nH]c3ccccc23)NC1=O)C(C)C)C(=O)O)C(=O)O [SEQ ID NO: 17] (H-H[Aib]QGTFTSDK([γGlu-γGlu-Palmitoyl])SKYLD[Aib]RAAQDFVKWL[Nle]ET-NH2; lactam 24-28; N-terminus assumed)
hGCGR/hGLPIR (hTone): 1.05

CCCCCCCCCCCCCCCC(=O)N[C@@H](CCC(=O)N[C@@H](CCC(=O)NCCCC[C@H](NC(=O)[C@H](CC(=O)O)NC(=O)[C@H](CO)NC(=O)[C@@H](NC(=O)[C@H](Cc1ccccc1)NC(=O)[C@@H](NC(=O)CNC(=O)[C@H](CCC(N)=O)NC(=O)[C@@H](CO)NC(=O)[C@@H](N)Cc1c[nH]cn1)[C@@H](C)O)[C@@H](C)O)C(=O)N[C@@H](CO)C(=O)N[C@@H](CCCCN)C(=O)N[C@@H](Cc1ccc(O)cc1)C(=O)N[C@@H](CC(C)C)C(=O)N[C@@H](CC(=O)O)C(=O)N[C@@H](CCC(=O)O)C(=O)N[C@@H](CCCNC(=N)N)C(=O)N[C@@H](C)C(=O)N[C@@H](C)C(=O)N[C@H]1CCC(=O)NCCCC[C@@H](C(=O)N[C@@H](Cc2c[nH]c3ccccc23)C(=O)N[C@@H](CC(C)C)C(=O)N[C@@H](CC(C)C)C(=O)N[C@@H](CC(=O)O)C(=O)N[C@H](C(N)=O)[C@@H](C)O)NC(=O)[C@H](C(C)C)NC(=O)[C@H](Cc2ccccc2)NC(=O)[C@H](CC(=O)O)NC1=O)C(=O)O)C(=O)O [SEQ ID NO: 7] (H-H[dS]QGTFTSDK([γGlu-γGlu-Palmitoyl])SKYLDERAAEDFVKWLLDT-NH2; lactam 20-24; N-terminus assumed)
hGCGR/hGLPIR (hTone): 1.05

CCCCCCCCCCCCCCCC(=O)N[C@@H](CCC(=O)N[C@@H](CCC(=O)NCCCC[C@H](NC(=O)[C@H](CC(=O)O)NC(=O)[C@H](CO)NC(=O)[C@@H](NC(=O)[C@H](Cc1ccccc1)NC(=O)[C@@H](NC(=O)CNC(=O)[C@H](CCC(N)=O)NC(=O)[C@@H](CO)NC(=O)[C@@H](N)Cc1c[nH]cn1)[C@@H](C)O)[C@@H](C)O)C(=O)N[C@@H](CO)C(=O)N[C@@H](CCCCN)C(=O)N[C@@H](Cc1ccc(O)cc1)C(=O)N[C@@H](CC(C)C)C(=O)N[C@@H](CC(=O)O)C(=O)N[C@@H](CCC(=O)O)C(=O)N[C@@H](CCCNC(=N)N)C(=O)N[C@@H](C)C(=O)N[C@@H](C)C(=O)N[C@H]1CCCCNC(=O)CC[C@@H](C(=O)N[C@@H](Cc2c[nH]c3ccccc23)C(=O)N[C@@H](CC(C)C)C(=O)N[C@@H](CC(C)C)C(=O)N[C@@H](CC(=O)O)C(=O)N[C@H](C(N)=O)[C@@H](C)O)NC(=O)[C@H](C(C)C)NC(=O)[C@H](Cc2ccccc2)NC(=O)[C@H](CC(=O)O)NC1=O)C(=O)O)C(=O)O [SEQ ID NO: 8] (H-H[dS]QGTFTSDK([γGlu-γGlu-Palmitoyl])SKYLDERAAKDFVEWLLDT-NH2; lactam 20-24; N-terminus assumed)
hGCGR/hGLPIR (hTone): 0.84

CCCCCCCCCCCCCCCC(=O)N[C@@H](CCC(=O)N[C@@H](CCC(=O)NCCCC[C@H](NC(=O)[C@H](CC(=O)O)NC(=O)[C@H](CO)NC(=O)[C@@H](NC(=O)[C@H](Cc1ccccc1)NC(=O)[C@@H](NC(=O)CNC(=O)[C@H](CCC(N)=O)NC(=O)[C@@H](CO)NC(=O)[C@@H](N)Cc1c[nH]cn1)[C@@H](C)O)[C@@H](C)O)C(=O)N[C@@H](CO)C(=O)N[C@@H](CCCCN)C(=O)N[C@@H](Cc1ccc(O)cc1)C(=O)N[C@@H](CC(C)C)C(=O)N[C@@H](CC(=O)O)C(=O)N[C@H]1CCCCNC(=O)CC[C@@H](C(=O)N[C@@H](CC(=O)O)C(=O)N[C@@H](Cc2ccccc2)C(=O)N[C@H](C(=O)N[C@@H](CCC(N)=O)C(=O)N[C@@H](Cc2c[nH]c3ccccc23)C(=O)N[C@@H](CC(C)C)C(=O)N[C@@H](CC(C)C)C(=O)N[C@@H](CC(=O)O)C(=O)N[C@H](C(N)=O)[C@@H](C)O)C(C)C)NC(=O)[C@H](C)NC(=O)[C@H](C)NC(=O)[C@H](CCCNC(=N)N)NC1=O)C(=O)O)C(=O)O [SEQ ID NO: 10] (H-H[dS]QGTFTSDK([γGlu-γGlu-Palmitoyl])SKYLDKRAAEDFVQWLLDT-NH2; lactam 16-20; N-terminus assumed)
hGCGR/hGLPIR (hTone): 0.8

CCCCCCCCCCCCCCCC(=O)N[C@@H](CCC(=O)N[C@@H](CCC(=O)NCCCC[C@H](NC(=O)[C@H](CC(=O)O)NC(=O)[C@H](CO)NC(=O)[C@@H](NC(=O)[C@H](Cc1ccccc1)NC(=O)[C@@H](NC(=O)CNC(=O)[C@H](CCC(N)=O)NC(=O)C(C)(C)NC(=O)[C@@H](N)Cc1c[nH]cn1)[C@@H](C)O)[C@@H](C)O)C(=O)N[C@@H](CO)C(=O)N[C@@H](CCCCN)C(=O)N[C@@H](Cc1ccc(O)cc1)C(=O)N[C@@H](CC(C)C)C(=O)N[C@@H](CC(=O)O)C(=O)NC(C)(C)C(=O)N[C@@H](CCCNC(=N)N)C(=O)N[C@@H](C)C(=O)N[C@@H](C)C(=O)N[C@H]1CCCCNC(=O)CC[C@@H](C(=O)N[C@@H](Cc2c[nH]c3ccccc23)C(=O)N[C@@H](CC(C)C)C(=O)N[C@@H](CCCC)C(=O)N[C@@H](CC(=O)O)C(=O)N[C@H](C(N)=O)[C@@H](C)O)NC(=O)[C@H](C(C)C)NC(=O)[C@H](Cc2ccccc2)NC(=O)[C@H](CC(=O)O)NC1=O)C(=O)O)C(=O)O [SEQ ID NO: 15] (H-H[Aib]QGTFTSDK([γGlu-γGlu-Palmitoyl])SKYLD[Aib]RAAKDFVEWL[Nle]DT-NH2; lactam 20-24; N-terminus assumed)
hGCGR/hGLPIR (hTone): 2.61

CCCCCCCCCCCCCCCC(=O)N[C@@H](CCC(=O)N[C@@H](CCC(=O)NCCCC[C@H](NC(=O)[C@H](CC(=O)O)NC(=O)[C@H](CO)NC(=O)[C@@H](NC(=O)[C@H](Cc1ccccc1)NC(=O)[C@@H](NC(=O)CNC(=O)[C@H](CCC(N)=O)NC(=O)[C@@H](CO)NC(=O)[C@@H](N)Cc1c[nH]cn1)[C@@H](C)O)[C@@H](C)O)C(=O)N[C@@H](CO)C(=O)N[C@@H](CCCCN)C(=O)N[C@@H](Cc1ccc(O)cc1)C(=O)N[C@@H](CC(C)C)C(=O)N[C@@H](CC(=O)O)C(=O)N[C@@H](C)C(=O)N[C@H]1CCCCNC(=O)CC[C@@H](C(=O)N[C@@H](Cc2ccccc2)C(=O)N[C@H](C(=O)N[C@@H](CCC(N)=O)C(=O)N[C@@H](Cc2c[nH]c3ccccc23)C(=O)N[C@@H](CC(C)C)C(=O)N[C@@H](CC(C)C)C(=O)N[C@@H](CC(=O)O)C(=O)N[C@H](C(N)=O)[C@@H](C)O)C(C)C)NC(=O)[C@H](CCC(N)=O)NC(=O)[C@H](C)NC(=O)[C@H](C)NC1=O)C(=O)O)C(=O)O [SEQ ID NO: 12]
EC50 (cAMP production, cells expressing human GCGR, 1 hour, table does not say whether with or without 20% human serum): 0.06 nM | hGCGR/hGLPIR (hTone): 0.8
